In publication PMC3726004 (Bioorganic & medicinal chemistry, 2009):

How the values were obtained:
α4β2* nAChRs [1] = target: T1, α4β2* nAChRs (Rattus norvegicus, UniProt P09483+P12390); assay: nicotine-evoked 86Rb+ efflux from rat thalamic synaptosomes; assay type: biochemical
α4β2* nAChRs [2] = target: T1, α4β2* nAChRs; assay: [3H]nicotine; assay type: binding
[3] = target: serotonin transporter (SERT) (Rattus norvegicus, UniProt P31652); assay: [3H]5-HT uptake into rat hippocampal synaptosomes; assay type: biochemical
Chain of serotonin transporter (SERT) (P31652 whole entry): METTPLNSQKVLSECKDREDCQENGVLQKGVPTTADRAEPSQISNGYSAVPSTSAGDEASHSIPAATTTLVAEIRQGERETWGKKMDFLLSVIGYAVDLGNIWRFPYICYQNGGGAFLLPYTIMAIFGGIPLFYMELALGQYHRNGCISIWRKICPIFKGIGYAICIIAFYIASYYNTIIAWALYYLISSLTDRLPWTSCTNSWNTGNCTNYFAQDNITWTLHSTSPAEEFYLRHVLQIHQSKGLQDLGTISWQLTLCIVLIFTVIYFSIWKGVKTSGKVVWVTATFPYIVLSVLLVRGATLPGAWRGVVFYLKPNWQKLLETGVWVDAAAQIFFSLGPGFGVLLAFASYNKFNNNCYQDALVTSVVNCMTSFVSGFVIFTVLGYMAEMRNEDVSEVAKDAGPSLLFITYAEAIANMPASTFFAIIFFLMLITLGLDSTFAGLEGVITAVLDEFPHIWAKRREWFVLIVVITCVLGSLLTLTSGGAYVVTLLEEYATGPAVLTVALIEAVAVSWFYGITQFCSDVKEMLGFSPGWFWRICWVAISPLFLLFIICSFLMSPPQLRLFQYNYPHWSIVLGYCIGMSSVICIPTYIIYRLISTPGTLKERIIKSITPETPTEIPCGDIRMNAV

VMAT2 = VMAT2 (Rattus norvegicus, UniProt Q01827); assay: [3H]MTBZ or [3H]DTBZ binding to rat synaptic vesicle membranes
Chain of VMAT2 (Q01827 whole entry): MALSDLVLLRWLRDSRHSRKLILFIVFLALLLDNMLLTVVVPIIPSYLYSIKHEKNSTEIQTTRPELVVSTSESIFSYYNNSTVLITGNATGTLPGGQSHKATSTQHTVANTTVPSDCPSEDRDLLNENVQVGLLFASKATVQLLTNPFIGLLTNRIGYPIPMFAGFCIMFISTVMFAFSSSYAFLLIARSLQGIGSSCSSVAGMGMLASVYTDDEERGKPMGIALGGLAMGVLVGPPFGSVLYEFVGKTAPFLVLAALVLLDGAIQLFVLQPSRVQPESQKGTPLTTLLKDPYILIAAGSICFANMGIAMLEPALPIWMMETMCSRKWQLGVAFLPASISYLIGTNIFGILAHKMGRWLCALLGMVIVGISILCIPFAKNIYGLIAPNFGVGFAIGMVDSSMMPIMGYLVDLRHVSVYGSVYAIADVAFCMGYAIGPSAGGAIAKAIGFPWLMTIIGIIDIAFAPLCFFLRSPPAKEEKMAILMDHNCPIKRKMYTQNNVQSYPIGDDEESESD

T1 sequence (P09483 31-630): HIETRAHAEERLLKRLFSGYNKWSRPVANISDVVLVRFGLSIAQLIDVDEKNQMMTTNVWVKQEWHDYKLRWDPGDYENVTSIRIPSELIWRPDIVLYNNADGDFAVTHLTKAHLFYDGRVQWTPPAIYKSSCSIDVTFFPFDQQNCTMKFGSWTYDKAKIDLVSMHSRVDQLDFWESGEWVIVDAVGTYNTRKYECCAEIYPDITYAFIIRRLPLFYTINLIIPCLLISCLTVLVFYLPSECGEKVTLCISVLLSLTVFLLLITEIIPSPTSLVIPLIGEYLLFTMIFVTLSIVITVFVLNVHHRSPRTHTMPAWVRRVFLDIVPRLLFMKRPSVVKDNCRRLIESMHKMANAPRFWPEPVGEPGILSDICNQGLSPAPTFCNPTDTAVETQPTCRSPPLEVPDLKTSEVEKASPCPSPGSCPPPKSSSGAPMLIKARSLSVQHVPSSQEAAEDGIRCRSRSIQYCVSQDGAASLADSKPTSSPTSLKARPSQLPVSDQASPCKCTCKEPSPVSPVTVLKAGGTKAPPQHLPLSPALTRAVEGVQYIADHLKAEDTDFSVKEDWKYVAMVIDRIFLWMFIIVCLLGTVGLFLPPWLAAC
T1 sequence (P12390 25-500): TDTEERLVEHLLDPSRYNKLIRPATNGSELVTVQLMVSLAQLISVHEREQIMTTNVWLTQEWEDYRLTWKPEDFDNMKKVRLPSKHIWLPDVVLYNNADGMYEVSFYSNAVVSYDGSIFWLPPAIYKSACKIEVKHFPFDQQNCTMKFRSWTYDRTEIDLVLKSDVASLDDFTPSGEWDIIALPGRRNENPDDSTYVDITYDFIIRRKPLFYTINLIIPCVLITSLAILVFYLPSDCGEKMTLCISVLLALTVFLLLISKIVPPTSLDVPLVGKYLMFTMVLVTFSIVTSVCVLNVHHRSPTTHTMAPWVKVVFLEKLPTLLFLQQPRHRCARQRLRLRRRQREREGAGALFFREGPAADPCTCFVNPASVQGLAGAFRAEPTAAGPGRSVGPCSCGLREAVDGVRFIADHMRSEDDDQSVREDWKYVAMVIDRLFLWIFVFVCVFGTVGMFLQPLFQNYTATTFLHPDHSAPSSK

Row | SMILES | fold less potent than lobeline in inhibiting [3H]nicotine binding (α4β2*) (α4β2* nAChRs [2]) | potency compared with lobeline at VMAT2 (VMAT2) | further results
1 | CN1C(CC(=O)c2ccccc2)CCC[C@H]1CC(OC(=O)c1ccccc1)c1ccccc1.Cl (stereo in doubt) [Compound 2, (2S, 6S, 2R)-2-[6-(2-Benzoyloxy-2-phenylethyl)-1-methylpiperidin-2-yl]-1-phenylethanone hydrochloride] | 215–4800 fold | – | extent of inhibition of nicotine-evoked 86Rb+ efflux (α4β2* nAChRs [1]): completely inhibited; fold less potent than analog 10 in the [3H]nicotine binding assay (α4β2* nAChRs [2]): 360 fold
2 | CC(=O)OC(C[C@@H]1CCCC(CC(=O)c2ccccc2)N1C)c1ccccc1.Cl (stereo in doubt) [Compound 5, (2S, 6S, 2R)-2-[6-(2-Acetyloxy-2-phenylethyl)-1-methylpiperidin-2-yl]-1-phenylethanone hydrochloride] | 15 to 125 fold | equipotent | potency compared with lobeline at SERT [3]: equipotent
3 | CCC(=O)OC(C[C@@H]1CCCC(CC(=O)c2ccccc2)N1C)c1ccccc1.Cl (stereo in doubt) [Compound 6, (2S, 6S, 2R)-2-[6-(2-Propionyloxy-2-phenylethyl)-1-methylpiperidin-2-yl]-1-phenylethanone hydrochloride] | 15 to 125 fold | – | –
4 | CCCC(=O)OC(C[C@@H]1CCCC(CC(=O)c2ccccc2)N1C)c1ccccc1.Cl (stereo in doubt) [Compound 7, (2S, 6S, 2R)-2-[6-(2-Butyryloxy-2-phenylethyl)-1-methylpiperidin-2-yl]-1-phenylethanone hydrochloride] | 15 to 125 fold | – | –
5 | CC(C)C(=O)OC(C[C@@H]1CCCC(CC(=O)c2ccccc2)N1C)c1ccccc1.Cl (stereo in doubt) [Compound 8, (2S, 6S, 2R)-2-[6-(2-Isobutyryloxy-2-phenylethyl)-1-methylpiperidin-2-yl]-1-phenylethanone hydrochloride] | 15 to 125 fold | – | –
6 | CN1C(CC(=O)c2ccccc2)CCC[C@H]1CC(OS(=O)(=O)c1ccccc1)c1ccccc1.Cl (stereo in doubt) [Compound 10, (2S, 6S, 2R)-2-[6-(2-Benzenesulfonyloxy-2-phenylethyl)-1-methylpiperidin-2-yl]-1-phenylethanone hydrochloride] | – | equipotent | potency compared with lobeline at SERT [3]: equipotent; extent of inhibition of nicotine-evoked 86Rb+ efflux (α4β2* nAChRs [1]): completely inhibited
7 | Cc1ccc(S(=O)(=O)OC(C[C@@H]2CCCC(CC(=O)c3ccccc3)N2C)c2ccccc2)cc1.Cl (stereo in doubt) [Compound 11, (2S, 6S, 2R)-2-[6-(2-p-Toluenesulfonyloxy-2-phenylethyl)-1-methylpiperidin-2-yl]-1-phenylethanone hydrochloride] | – | – | potency compared with lobeline at α4β2* nAChRs ([3H]nicotine binding) (α4β2* nAChRs [2]): equipotent
8 | COc1ccc(C(=O)O[C@@H](C[C@@H]2CCC[C@H](CC(=O)c3ccccc3)N2C)c2ccccc2)cc1.Cl [Compound 4, (2S, 6S, 2R)-2-[6-(2-Anisoyloxy-2-phenylethyl)-1-methylpiperidin-2-yl]-1-phenylethanone hydrochloride] | 215–4800 fold | equipotent | –
9 | CN1[C@@H](CC(=O)c2ccccc2)CCC[C@H]1C[C@H](OC(=O)c1cccs1)c1ccccc1.Cl [Compound 9, (2S, 6S, 2R)-2-[6-(2-(2-Thiophen)-carboxyl-2-phenylethyl)-1-methylpiperidin-2-yl]-1-phenylethanone hydrochloride] | 215–4800 fold | – | –
